Results from article PMC6272178, “Flavonoids from Sideritis Species: Human Monoamine Oxidase (hMAO) Inhibitory Activities, Molecular Docking Studies and Crystal Structure of Xanthomicrol” (Molecules, 2015).
Read-outs that look alike come from different tables or passages of the source.

Columns and labels:
hMAO-A [1] = biological target: T1, hMAO-A (Homo sapiens, UniProt P21397); assay: hMAO-A inhibition, fluorimetric Amplex Red assay with p-tyramine, kinetic Ki determination; format: biochemical; settings: for Experimental SI: SI = Ki (MAO-A)/Ki (MAO-B); for Experimental SI / Selectivity: from experimental Ki values; for Selectivity: isoform preferentially inhibited; for Ki: recombinant hMAO-A, p-tyramine substrate 0.05–0.5 mM, mean ± SEM of three experiments, read-out: Experimental Ki for MAO-A; for Mode of hMAO-A inhibition: Lineweaver–Burk plots
T1 construct: purchased Sigma-Aldrich (Munich, Germany); host or cells: baculovirus-infected BTI insect cells
T1 sequence (P21397 1-527): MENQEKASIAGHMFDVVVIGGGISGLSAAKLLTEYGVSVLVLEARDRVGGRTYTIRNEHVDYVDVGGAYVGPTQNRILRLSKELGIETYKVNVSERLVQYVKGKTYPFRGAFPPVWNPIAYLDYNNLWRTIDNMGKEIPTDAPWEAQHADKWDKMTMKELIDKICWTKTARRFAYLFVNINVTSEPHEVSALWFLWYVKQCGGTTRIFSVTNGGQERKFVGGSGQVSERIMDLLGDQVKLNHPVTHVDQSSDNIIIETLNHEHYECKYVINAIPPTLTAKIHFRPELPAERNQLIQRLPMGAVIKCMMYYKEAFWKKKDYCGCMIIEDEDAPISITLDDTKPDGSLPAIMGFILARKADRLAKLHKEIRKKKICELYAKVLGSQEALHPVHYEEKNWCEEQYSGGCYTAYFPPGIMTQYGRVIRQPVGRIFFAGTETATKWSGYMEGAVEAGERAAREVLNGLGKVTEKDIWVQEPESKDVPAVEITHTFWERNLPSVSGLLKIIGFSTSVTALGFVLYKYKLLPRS

hMAO-B = biological target: T2, hMAO-B (Homo sapiens, UniProt P27338); assay: hMAO-B inhibition, fluorimetric Amplex Red assay with p-tyramine, kinetic Ki determination; format: biochemical; settings: recombinant hMAO-B, p-tyramine substrate 0.05–0.5 mM, mean ± SEM of three experiments; read-out: Experimental Ki for MAO-B
T2 construct: purchased Sigma-Aldrich (Munich, Germany); host or cells: baculovirus-infected BTI insect cells
T2 sequence (P27338 1-520): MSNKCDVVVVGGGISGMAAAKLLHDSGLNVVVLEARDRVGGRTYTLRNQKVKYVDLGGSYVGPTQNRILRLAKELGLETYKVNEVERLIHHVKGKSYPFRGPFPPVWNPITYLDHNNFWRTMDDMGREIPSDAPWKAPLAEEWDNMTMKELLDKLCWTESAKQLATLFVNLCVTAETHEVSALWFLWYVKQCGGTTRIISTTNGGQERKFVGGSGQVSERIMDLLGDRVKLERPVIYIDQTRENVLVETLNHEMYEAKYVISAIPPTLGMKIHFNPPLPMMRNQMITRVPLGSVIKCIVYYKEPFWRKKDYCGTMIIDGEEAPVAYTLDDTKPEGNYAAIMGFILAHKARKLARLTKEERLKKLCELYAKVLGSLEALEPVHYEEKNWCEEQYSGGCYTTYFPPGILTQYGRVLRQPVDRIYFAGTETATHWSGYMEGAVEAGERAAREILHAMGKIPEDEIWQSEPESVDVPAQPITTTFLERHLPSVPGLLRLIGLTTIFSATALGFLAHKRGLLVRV

hMAO-A [2] = biological target: T1, hMAO-A; assay: Reversibility of hMAO-A inhibition, centrifugation-ultrafiltration method; format: biochemical; settings: for inhibition at 0.5 µM: compound 0.50 μM, mean ± SEM of three experiments; for Reversibility of hMAO-A inhibition: recovery of hMAO-A activity after repeated washing
Description: Reversibility of the MAO inhibition with newly synthesized compounds was determined by centrifugation-ultrafiltration method previously described. Recombinant enzymes (hMAO-A or B) were incubated with a single concentration of the synthesized compounds or the reference inhibitors in a sodium phosphate buffer (0.05 M, pH 7.4) for one hour at 37 °C. An aliquot was stored at 4 °C and used for the measurement of MAO-A and -B activities. The remaining incubated sample was placed in an Ultrafree-0.5 centrifugal tube with a 30 kDa Biomax membrane and centrifuged at 9000× g for 20 min at 4 °C. The enzyme retained in the 30 kDa membrane was re-suspended in a sodium phosphate buffer at 4 °C and centrifuged two more times. After the third centrifugation, the enzyme retained in the membrane was re-suspended in sodium phosphate buffer ([…]) and an aliquot of this suspension was used for MAO-A and -B activity determination. Control experiments were performed simultaneously to determine the 100% MAO activity by replacing the compounds and standards with appropriate dilutions of the vehicles. The corresponding values of percent (%) MAO isoform inhibition was separately calculated for samples with and without repeated washing.

mouse brain MAO-A = test system: mouse brain MAO-A; set-up: method as in PMID 24218136, PMID 25142815; settings: flavonoids from Cayratia japonica; cited from earlier work
[3] = after repeated washing (three centrifugation-ultrafiltration steps), read-out: hMAO-A Inhibition (%) After Washing
[4] = incubated one hour at 37 °C, before washing, read-out: hMAO-A Inhibition (%) Before Washing

Experimental SI (hMAO-A [1]) | Selectivity (hMAO-A [1]) | Ki (hMAO-A [1]) [µM] | Ki (hMAO-B) [µM] | inhibition at 0.5 µM (hMAO-A [2]; [3]) [%] | inhibition at 0.5 µM (hMAO-A [2]; [4]) [%] | Mode of hMAO-A inhibition (hMAO-A [1]) | Reversibility of hMAO-A inhibition (hMAO-A [2]) | SMILES | IC50 (mouse brain MAO-A) [µM]
0.034 | MAO-A | 2800 ± 180 | 80500 | 13.3 ± 1.09 | 74.2 ± 4.89 | – | – | CC(=O)OC[C@H]1O[C@@H](O[C@H]2[C@H](Oc3cc(O)c4c(=O)cc(-c5ccc(O)cc5)oc4c3O)O[C@H](COC(C)=O)[C@@H](O)[C@@H]2O)[C@H](O)[C@H](O)[C@@H]1O [Compound 3, isoscutellarein 7-O-[6'''-O-acetyl-β-D-allopyranosyl-(1→2)]-6''-O-acetyl-β-D-glucopyranoside] | –
0.015 | MAO-A | 1100 ± 99.2 | 75600 | 10.9 ± 0.99 | 80.2 ± 5.66 | – | – | CC(=O)OC[C@H]1O[C@@H](O[C@H]2[C@H](Oc3cc(O)c4c(=O)cc(-c5ccc(O)cc5)oc4c3O)O[C@H](CO)[C@@H](O)[C@@H]2O)[C@H](O)[C@H](O)[C@@H]1O [Compound 2, isoscutellarein 7-O-[6'''-O-acetyl-β-D-allopyranosyl-(1→2)]-β-D-glucopyranoside] | –
0.007 | MAO-A | 0.76 ± 0.03 | 99.5 ± 7.44 | 9.23 ± 0.75 | 86.5 ± 5.21 | competitive | highly reversible inhibitors | COc1c(OC)c(O)c2c(=O)cc(-c3ccc(O)cc3)oc2c1OC [Compound 1, xanthomicrol] | –
– | – | – | – | 7.89 ± 0.52 | 91.2 ± 6.33 | – | – | O=C(NCCN1CCOCC1)c1ccc(Cl)cc1 [Moclobemide, moclobemide, reference compound] | –
– | – | – | – | – | – | – | – | O=c1cc(-c2ccc(O)cc2)oc2cc(O)cc(O)c12 [apigenin] | 1.17
0.086 | MAO-A | 0.54 ± 0.02 | 6.27 ± 0.36 | 8.66 ± 0.65 | 89 ± 5.02 | competitive | highly reversible inhibitors | COc1ccc(-c2cc(=O)c3c(O)c(OC)c(OC)cc3o2)cc1 [Compound 4, salvigenin] | –
